Assay results reported in patent publication US4176184A, “Imidazoisoquinoline-diones and salts thereof” (Boehringer Ingelheim GmbH, priority 1977, dated 1979).
Counter-ions that a name gives are not always drawn. Like-named read-outs stand apart in the source and are kept apart here.

Experiments:
[1] = tested on: arterial blood pressure and dp/dt max. (left ventricle); assay: Cardiotonic and blood pressure effects in anesthetized cats; type: in vivo, cat; conditions: 2 mg/kg intravenously; for Change in blood pressure (first value of the pair printed with a slash): first of two values; for Change in blood pressure (second value of the pair printed with a slash): second of two values; for change in vivo at 2 mg/kg: Felis catus, iv, dp/dt max., index of contractility, read-out: Increase in dp/dt
Description: 1. Cardiotonic and blood pressure effects
Cats of both sexes with a body weight of 2 to 4 kg were anesthetized by intraperitoneal injection of 30 mgm/kg of sodium pentobarbital. The arterial blood pressure was measured by a Statham pressure transducer (P23 Dc) from the aorta abdominalis via a PVA-Catheter, which was inserted through the right arteria femoralis. The ventricle pressure was measured by a cathetertip manometer (type MILLAR PC-350), which was introduced into the left ventricle via the right arteria carotis. The indices of contractility dp/dt max. were obtained by a differentiating amplifier. The arterial blood pressure and dp/dt max. were continuously recorded by direct-writer. The test compounds were injected intravenously at 2 mg/kg.

[2] = Acute toxicity in mice; conditions: mouse, in vivo, dose at which 50% of the animals died
[3] = tested on: chloroform-induced ventricular fibrillation; assay: Antiarrhythmic effect against chloroform-induced ventricular fibrillation in mice; type: in vivo; conditions: Mus musculus, 1 min, male mice, ventricular fibrillation prevented in 50% of animals
Description: 3. Antiarrhythmic effect against chloroform-induced ventricular fibrillation in mice
On placing a mouse into a chloroform-saturated atmosphere, the animal becomes anesthetized after 40 sec., the spontaneous respiration stops, and after 20 sec. more, gasping respiration sets in.
Immediately after the gasping respiration has ceased, the mouse is taken out of the chloroform atmosphere, the thorax is opened, and the heart is quickly exposed to allow inspection of the heart movement. For 1 minute after opening the thorax, spontaneous ventricular fibrillation occurs in nearly all the animals or can be induced by touching the heart with tweezers.
Pre-treatment with antiarrhythmic compounds reduces the number of animals which show fibrillation in a dose-dependent way. The dose which reduces the number of animals having fibrillations by 50% (ED50) is calculated by means of dose-response curves and the standard deviation is determined [MILLER, L. C. and TAINTER, M. L., Proc. Soc. Exp. Biol. Med. 57, 261 (1944)].
The tests were performed on male mice, body weight 20-25 gm. Each dose was tested on 10 animals.
The dose was determined, at which after i.v. and p.o. administration one minute before starting the test, the ventricular fibrillation was prevented in 50% of the animals.

[4] = tested on: isolated electrically stimulated left auricle of the guinea pig; assay: Effect on the effective refractory period of the isolated electrically stimulated left auricle of the guinea pig; conditions: Cavia porcellus; Tyrode's solution, 37° C.; cumulative dosing; graphically determined from dose response curves; read-out: EC50 (concentration which reduces the maximum stimulation frequency by 50%)
Description: 2. Effect on the effective refractory period of the isolated electrically stimulated left auricle of the guinea pig
Guinea pigs of both sexes were killed by a blow on the neck. After opening the thorax, the heart was quickly removed and transferred into a Tyrode's solution (37° C.). The auricles were separated from the ventricles along the Annulus fibrosus, and only the left auricles were used. Electrical stimulation was performed by a Grass stimulator, S4G, with square wave impulses of 1 millisecond duration and a stimulation voltage of 12 V. The auricles were suspended in Tyrode's solution at 37° C. containing 136.8 mVal NaCl, 2.68 mVal KCL, 0.2625 mVal MgCl2, 0.417 mVal NaH2 PO4, 11.9 mVal NaHCO3, 1.8 mVal CaCl, and 3 gm of glucose perliter. The solution was continuously aerated with O2 /CO2 (98%/2%). The isometric contractions were measured with a force displacement transducer and recorded on a Grass polygraph (P5). The number of the contractions was counted out and compared with the frequency indicated at the stimulator.
The maximum stimulation frequency was determined by increasing the stimulation rate every 10 seconds by 1 Hz. The maximum stimulation frequency was measured in preliminary tests by determining the average value. During the intervals of 5 minutes each between the measurements, the stimulation rate was 0.5 Hz.
After the determination of the average value the test compound was added to the Tyrode's solution and the stimulation rate was maintained at 0.5 Hz. During the first 5 minutes the inotropic effect of the compound was observed. Measurements were performed every 5 and 10 minutes after addition of the test compound. The average value resulting from the two tests (value at 5 minutes and 10 minutes, respectively) was taken as the maximum stimulation frequency after addition of the test compound. At first small doses were given, and after determination of the maximum stimulation frequency the dose was increased cumulatively and the maximum stimulation frequency for that dose was measured.
The maximum stimulation frequency is measured by increasing the stimulation rate. When the interval between two stimuli is shortened, a stimulation rate is reached at which every second stimulation falls into the refractory period of the foregoing contraction and will not be answered with a contraction. So, the maximum stimulation frequency is a measure of the effective refractory period. Compounds which reduce the maximum stimulation frequency, prolong the refractory period.
From the dose response curves the concentrations which reduce the maximum stimulation frequency by 50%, were graphically determined: […]

[5] = po, read-out: Toxicity (LD50) p.o.
[6] = iv, i.v. one minute before test, read-out: ED50 i.v.
[7] = po, p.o. one minute before test, read-out: ED50 p.o.

Row | SMILES | Duration [1] | Change in blood pressure (first value of the pair printed with a slash) [1] | Change in blood pressure (second value of the pair printed with a slash) [1] | LD50 [2, 5] | change in vivo at 2 mg/kg [1] | ED50 [3, 6] | ED50 [3, 7] | EC50 [4] | LD50 ([2]; ip, read-out: Toxicity (LD50) i.p.)
1 | COc1ccc(-c2nc3ccc4c(c3[nH]2)C(=O)NC(=O)C4(C)C)c(OC)c1 [A, 7,7-Dimethyl-2-(2,4-dimethoxy-phenyl)-5H,7H-imidazo[4,5-h]isoquinoline-4,6-dione hydrochloride] | > 24 min | -49 mm Hg | -48 mm Hg |  |  |  |  |  | 
2 | COc1cc(S(C)(=O)=O)ccc1-c1nc2ccc3c(c2[nH]1)C(=O)NC(=O)C3(C)C [B, 7,7-Dimethyl-2-(2-methoxy-4-methylsulfonyl-phenyl)-5H,7H-imidazo[4,5-h]isoquinoline-4,6-dione] | > 56 min | -52 mm Hg | -80 mm Hg |  |  |  |  |  | 
3 | CC1(C)C(=O)NC(=O)c2c1ccc1[nH]c(CCc3ccccc3)nc21 [C] | > 20 min | -40 mm Hg | -50 mm Hg |  |  |  |  |  | 
4 | COc1ccccc1-c1nc2ccc3c(c2[nH]1)C(=O)NC(=O)C3(C)C [Compound E, 7,7-Dimethyl-2-(2-methoxy-phenyl)-5H,7H-imidazo[4,5-h]isoquinoline-4,6-dione hydrochloride] | 12 min | -46 mm Hg | -63 mm Hg |  |  |  |  |  | 
5 | CC1(C)C(=O)NC(=O)c2c1ccc1nc(Cc3ccccc3)[nH]c21 [D, 7,7-Dimethyl-2-benzyl-5H,7H-imidazo[4,5-h]isoquinoline-4,6-dione] | > 57 min | -67 mm Hg | -63 mm Hg | > 300 mg/kg | 110% |  |  |  | 
6 | CC1(C)C(=O)NC(=O)c2c1ccc1nc(C3CCCCC3)[nH]c21 [F] | > 42 min | -23 mm Hg | -40 mm Hg | > 300 mg/kg |  |  |  |  | 
7 | CC1(C)C(=O)NC(=O)c2c1ccc1nc(-c3ccc(Cl)cc3)[nH]c21 [G, 7,7-Dimethyl-2-(4-chloro-phenyl)-5H,7H-imidazo[4,5-h]isoquinoline-4,6-dione hydrochloride] | 9 min | -40 mm Hg | -30 mm Hg |  |  |  |  |  | 
8 | CSc1ccc(-c2nc3ccc4c(c3[nH]2)C(=O)NC(=O)C4(C)C)cc1 [H, 7,7-Dimethyl-2-(4-methylmercapto-phenyl)-5H,7H-imidazo[4,5-h]isoquinoline-4,6-dione] | > 12 min | -45 mm Hg | -45 mm Hg |  |  |  |  |  | 
9 | COc1ccc(-c2nc3ccc4c(c3[nH]2)C(=O)NC(=O)C4(C)C)cc1 [I, 7,7-Dimethyl-2-(4-methoxy-phenyl)-5H,7H-imidazo[4,5-h]isoquinoline-4,6-dione hydrochloride] | > 19 min | -33 mm Hg | -46 mm Hg |  |  |  |  |  | 
10 | CC1(C)C(=O)NC(=O)c2c1ccc1nc(-c3ccc(O)cc3)[nH]c21 [J, 7,7-Dimethyl-2-(4-hydroxy-phenyl)-5H,7H-imidazo[4,5-h]isoquinoline-4,6-dione hydrochloride] | > 29 min | -47 mm Hg | -58 mm Hg |  |  |  |  |  | 
11 | COc1ccc(S(C)(=O)=O)cc1-c1nc2ccc3c(c2[nH]1)C(=O)NC(=O)C3(C)C [K, 7,7-Dimethyl-2-(2-methoxy-5-methylsulfonyl-phenyl)-5H,7H-imidazo[4,5-h]isoquinoline-4,6-dione] | > 107 min | -70 mm Hg | -67 mm Hg | > 300 mg/kg | 157% |  |  |  | 
12 | COc1ccc([S+](C)[O-])cc1-c1nc2ccc3c(c2[nH]1)C(=O)NC(=O)C3(C)C (centres unmarked) [L, 7,7-Dimethyl-2-(2-methoxy-5-methylsulfinyl-phenyl)-5H,7H-imidazo[4,6-h]isoquinoline-4,6-dione hydrochloride] | > 70 min | -42 mm Hg | -53 mm Hg |  |  |  |  |  | 
13 | CC1(C)C(=O)NC(=O)c2c1ccc1nc(C3CC3)[nH]c21 [M, hydrochloride] | > 55 min | -41 mm Hg | -49 mm Hg |  | 108% |  |  |  | 
14 | CCN(CC)CCN1C(=O)c2c(ccc3nc(-c4ccccc4)[nH]c23)C(C)(C)C1=O [N, 7,7-Dimethyl-2-phenyl-5-(2-diethylamino-ethyl)-5H,7H-imidazo[4,5-h]isoquinoline-4,6-dione dihydrochloride] |  |  |  |  |  | 2.4 mg/kg | 21.2 mg/kg | 1.8 µg/mL | 
15 | CCN(CC)CCCN1C(=O)c2c(ccc3nc(-c4ccccc4)[nH]c23)C(C)(C)C1=O [O, 7,7-Dimethyl-2-phenyl-5-(3-diethylamino-propyl)-5H,7H-imidazo[4,5-h]isoquinoline-4,6-dione dihydrochloride] |  |  |  | 92 mg/kg |  | 6.4 mg/kg | 29 mg/kg | 5 µg/mL | 61 mg/kg
16 | CC1(C)C(=O)N(CCCN2CCCCC2)C(=O)c2c1ccc1nc(-c3ccccc3)[nH]c21 [P, 7,7-Dimethyl-2-phenyl-5-(3-piperidino-propyl)-5H,7H-imidazo[4,5-h]isoquinoline-4,6-dione dihydrochloride] |  |  |  |  |  | 10.5 mg/kg | 130 mg/kg | 6.7 µg/mL | 
17 | CN(C)CCN1C(=O)c2c(ccc3nc(-c4ccccc4)[nH]c23)C(C)(C)C1=O [Q, 7,7-Dimethyl-2-phenyl-5-(2-dimethylamino-ethyl)-5H,7H-imidazo[4,5-h]isoquinoline-4,6-dione-dihydrochloride] |  |  |  |  |  | 6.1 mg/kg | 23.5 mg/kg | 4.8 µg/mL | 
